Measurements: ChEMBL document CHEMBL1649431, “Molecular mechanisms of macrolide resistance in clinical isolates of Mycoplasma pneumoniae from China” (2009)
≈ marks a conversion by molar mass, not a printed value.

Assays:
[1] = tested on: Mycoplasmoides pneumoniae; experiment: Antimicrobial activity against Mycoplasma pneumoniae FH by microdilution method; assay type: functional
[2] = tested on: Mycoplasmoides pneumoniae; experiment: Antimicrobial activity against Mycoplasma pneumoniae clinical isolate harboring point mutations in 23S rRNA at positions 2063 and 2064 isolated from human respiratory tract by microdilution method; assay type: functional

Structure (SMILES)	MIC [1] [µg/mL]	MIC [2] [µg/mL]	MIC50 [2] [µg/mL]	MIC90 [2] [µg/mL]
CC[C@H]1OC(=O)[C@H](C)[C@@H](O[C@H]2C[C@@](C)(OC)[C@@H](O)[C@H](C)O2)[C@H](C)[C@@H](O[C@@H]2O[C@H](C)C[C@H](N(C)C)[C@H]2O)[C@](C)(O)C[C@@H](C)CN(C)[C@H](C)[C@@H](O)[C@]1(C)O [AZITHROMYCIN]	0.001 (≈ 0.00134 µM)	0.001 (≈ 0.00134 µM)	128 (≈ 171 µM)	256 (≈ 342 µM)
CC[C@H]1OC(=O)[C@H](C)[C@@H](O[C@H]2C[C@@](C)(OC)[C@@H](O)[C@H](C)O2)[C@H](C)[C@@H](O[C@@H]2O[C@H](C)C[C@H](N(C)C)[C@H]2O)[C@](C)(O)C[C@@H](C)C(=O)[C@H](C)[C@@H](O)[C@]1(C)O [ERYTHROMYCIN]	0.01 (≈ 0.0136 µM)	0.01 (≈ 0.0136 µM)	128 (≈ 174 µM)	512 (≈ 698 µM)
CO[C@@H]1[C@@H](O[C@@H]2O[C@H](C)[C@@H](O[C@H]3C[C@@](C)(O)[C@@H](OC(=O)CC(C)C)[C@H](C)O3)[C@H](N(C)C)[C@H]2O)[C@@H](CC=O)C[C@@H](C)[C@@H](O)/C=C/C=C/C[C@@H](C)OC(=O)C[C@H]1OC(C)=O [JOSAMYCIN]	0.1 (≈ 0.121 µM)	0.01 (≈ 0.0121 µM)	32 (≈ 38.6 µM)	64 (≈ 77.3 µM)
